Measurements from patent US20240083857A1, “2-Methyl-Quinazolines” (Bayer Pharma Aktiengesellschaft, priority 2017, published 2024).
pIC50: −log10 of the molar value.

Key:
[1] = molecular target: K-Ras^G12C : hSOS1 interaction (Homo sapiens, UniProt Q07889); experiment: Biochemical assay 1: K-Ras^G12C interaction assay with hSOS1 (HTRF); format: binding; settings: for pIC50: read-out: Assay 1 (KRAS-SOS Interaction) activity expressed as IC50
[2] = molecular target: human SOS1 (loading of human K-Ras^G12C-GDP with fluorescent GTP-analog) (Homo sapiens, UniProt Q07889); experiment: Biochemical assay 3: K-Ras^G12C activation assay by hSOS1 (HTRF); settings: no GTP; for pIC50: read-out: Assay 3 (KRAS-Activation by SOS no GTP) activity expressed as IC50; for inhibition at 20 µM: read-out: Assay 3 (KRAS-Activation by SOS no GTP) activity expressed as % inhibition at 20 μM

| Compound | pIC50 [1] | pIC50 [2] | inhibition at 20 µM [2] [%] | inhibition at 20 µM ([1]; read-out: Assay 1 (KRAS-SOS Interaction) activity expressed as % inhibition at 20 μM) [%] |
| --- | --- | --- | --- | --- |
| COc1cc2nc(C)nc(NC(C)c3cccc(Oc4ccccc4)c3)c2cc1OC (single isomer, unassigned; enantiomer 1) [Example 228, 6,7-dimethoxy-2-methyl-N-[1-(3-phenoxyphenyl)ethyl]quinazolin-4-amine, Enantiomer 1] | 6.24 | 5.84 |  |  |
| COc1cc2nc(C)nc(NC(C)c3cccc4cccnc34)c2cc1OC (single isomer, unassigned; enantiomer 1) [Example 230, 6,7-dimethoxy-2-methyl-N-[1-(quinolin-8-yl)ethyl]quinazolin-4-amine, Enantiomer 1] | 5.31 | 4.88 |  |  |
| COc1cc2nc(C)nc(N[C@H](C)c3cccc(Cl)c3)c2cc1OC [Example 2, N-[(1R)-1-(3-chlorophenyl)ethyl]-6,7-dimethoxy-2-methylquinazolin-4-amine] | 6.90 | 6.27 |  |  |
| COC(=O)c1cc2c(C(C)Nc3nc(C)nc4cc(OC)c(OC)cc34)cccc2s1 (stereo not shown) [Example 3, methyl 4-{1-[(6,7-dimethoxy-2-methylquinazolin-4-yl)amino]ethyl}-1-benzothiophene-2-carboxylate] | 6.95 | 6.64 |  |  |
| COc1cc2nc(C)nc(NC(C)c3cccc4ccoc34)c2cc1OC (stereo not shown) [Example 4, N-[1-(1-benzofuran-7-yl)ethyl]-6,7-dimethoxy-2-methylquinazolin-4-amine] | 6.79 | 6.32 |  |  |
| COc1cc2nc(C)nc(NC(C)c3ccc(F)c4[nH]ncc34)c2cc1OC (stereo not shown) [Example 5, N-[1-(7-fluoro-1H-indazol-4-yl)ethyl]-6,7-dimethoxy-2-methylquinazolin-4-amine] | 5.77 | 5.30 |  |  |
| COc1cc2nc(C)nc(NC(C)c3cc(F)cc4[nH]ncc34)c2cc1OC (stereo not shown) [Example 6, N-[1-(6-fluoro-1H-indazol-4-yl)ethyl]-6,7-dimethoxy-2-methylquinazolin-4-amine] | 5.64 | 5.30 |  |  |
| COc1cc2nc(C)nc(NC(C)c3cccc4cn(C)nc34)c2cc1OC (stereo not shown) [Example 8, 6,7-dimethoxy-2-methyl-N-[1-(2-methyl-2H-indazol-7-yl)ethyl]quinazolin-4-amine] | 4.74 |  | 14 |  |
| COc1cc2nc(C)nc(NC(C)c3cccc4nn(C)cc34)c2cc1OC (stereo not shown) [Example 9, 6,7-dimethoxy-2-methyl-N-[1-(2-methyl-2H-indazol-4-yl)ethyl]quinazolin-4-amine] | 5.82 | 5.22 |  |  |
| COc1cc2nc(C)nc(NC(C)c3cccc4cnn(C)c34)c2cc1OC (stereo not shown) [Example 10, 6,7-dimethoxy-2-methyl-N-[1-(1-methyl-1H-indazol-7-yl)ethyl]quinazolin-4-amine] | 5.93 | 5.21 |  |  |
| COc1cc2nc(C)nc(NC(C)c3cccc4c3CCCC4)c2cc1OC (stereo not shown) [Example 11, 6,7-dimethoxy-2-methyl-N-[1-(5,6,7,8-tetrahydronaphthalen-1-yl)ethyl]quinazolin-4-amine] | 6.69 | 6.27 |  |  |
| COc1cc2nc(C)nc(N[C@H](C)c3ccc(F)cc3)c2cc1OC [Example 12, N-[(1R)-1-(4-fluorophenyl)ethyl]-6,7-dimethoxy-2-methylquinazolin-4-amine] | 6.47 | 5.89 |  |  |
| COc1cc2nc(C)nc(NC(C)c3cccc4[nH]nc(C)c34)c2cc1OC (stereo not shown) [Example 13, 6,7-dimethoxy-2-methyl-N-[1-(3-methyl-1H-indazol-4-yl)ethyl]quinazolin-4-amine] | 5.69 | 5.11 |  |  |
| COc1cc2nc(C)nc(NC(C)c3cc4cccc(O)c4o3)c2cc1OC (stereo not shown) [Example 28, 2-{-[(6,7-dimethoxy-2-methyquinazolin-4-yl)amino]ethyl}-1-benzofuran-7-ol] |  |  | 46 | 40 |
| COC(=O)c1ccccc1-c1ccc(C(C)Nc2nc(C)nc3cc(OC)c(OC)cc23)s1 (stereo not shown) [Example 178, methyl 2-(5-{1-[(6,7-dimethoxy-2-methylquinazolin-4-yl)amino]ethyl}thiophen-2-yl)benzoate] | 5.84 | 5.15 |  |  |
| COc1cc2nc(C)nc(NC(C)c3ccc(-c4ccccc4CN4CCC(C(N)=O)CC4)s3)c2cc1OC (stereo not shown) [Example 179, 1-[2-(5-{1-[(6,7-dimethoxy-2-methylquinazolin-4-yl)amino]ethyl}thiophen-2-yl)benzyl]piperidine-4-carboxamide] | 7.04 | 6.67 |  |  |
| COc1cc2nc(C)nc(NC(C)c3ccc(-c4ccccc4CCO)s3)c2cc1OC (stereo not shown) [Example 180, 2-[2-(5-{1-[(6,7-dimethoxy-2-methylquinazolin-4-yl)amino]ethyl}thiophen-2-yl)phenyl]ethanol] | 6.62 | 6.09 |  |  |
| COc1cc2nc(C)nc(NC(C)c3ccc(-c4cccc(CCO)c4)s3)c2cc1OC (stereo not shown) [Example 181, 2-[3-(5-{1-[(6,7-dimethoxy-2-methylquinazolin-4-yl)amino]ethyl}thiophen-2-yl)phenyl]ethanol] | 5.46 |  | 45 |  |

| Compound | pIC50 [1] | pIC50 [2] | inhibition at 20 µM [2] [%] | inhibition at 20 µM ([1]; read-out: Assay 1 (KRAS-SOS Interaction) activity expressed as % inhibition at 20 μM) [%] |
| --- | --- | --- | --- | --- |
| COc1cc2nc(C)nc(NC(C)c3ccc(-c4ccccc4CN4CC5(COC5)C4)s3)c2cc1OC (stereo not shown) [Example 182, 6,7-di methoxy-2-methyl-N-[1-{5-[2-(2-oxa-6-azaspiro[3.3]hept-6-ylmethyl)phenyl]thiophen-2-yl}ethyl]quinazolin-4-amine] | 7.29 | 6.92 |  |  |
| COc1cc2nc(C)nc(NC(C)c3cc(C)c(Br)s3)c2cc1OC (stereo not shown) [Example 183, N-[1-(5-bromo-4-methylthiophen-2-yl)ethyl]-6,7-dimethoxy-2-methylquinazolin-4-amine] | 5.68 | 5.04 |  |  |
| COc1cc2nc(C)nc(NC(C)c3ccc(-c4ccccc4CN4CCCC4)s3)c2cc1OC (stereo not shown) [Example 184, 6,7-dimethoxy-2-methyl-N-[1-{5-[2-(pyrrolidin-1-ylmethyl)phenyl]thiophen-2-yl}ethyl]quinazolin-4-amine] | 7.38 | 6.91 |  |  |
| COc1cc2nc(C)nc(NC(C)c3ccc(-c4ccccc4CN4CCC[C@H]4CN(C)C)s3)c2cc1OC (stereo partly drawn) [Example 185, N-[1-{5-[2-({(2S)-[(dimethylamino)methyl]pyrrolidin-1-yl}methyl)phenyl]thiophen-2-yl}ethyl]-6,7-dimethoxy-2-methylquinazolin-4-amine] | 7.10 | 6.49 |  |  |
| Cc1nc(N[C@H](C)c2cccc3ccccc23)c2ccccc2n1 [Example 186, 2-methyl-N-[(1R)-1-(naphthalen-1-yl)ethyl]quinazolin-4-amine] | 5.00 |  | 22 |  |
| COc1cc2nc(C)nc(N[C@H](C)c3ccc(Br)cc3)c2cc1OC [Example 187, N-[(1R)-1-(4-bromophenyl)ethyl]-6,7-dimethoxy-2-methylquinazolin-4-amine] | 6.32 | 5.90 |  |  |
| COc1cc2nc(C)nc(N[C@H](C)c3ccc(S(C)(=O)=O)cc3)c2cc1OC [Example 188, 6,7-dimethoxy-2-methyl-N-{(1R)-1-[4-(methylsulfonyl)phenyl]ethyl}quinazolin-4-amine] | 4.80 |  | 38 |  |
| COc1cc2nc(C)nc(N[C@H](C)c3cccc(C)c3)c2cc1OC [Example 190, 6,7-dimethoxy-2-methyl-N-[(1R)-1-(3-methylphenyl)ethyl]quinazolin-4-amine] | 6.76 | 6.26 |  |  |
| COc1cc2nc(C)nc(N[C@H](C)c3cccc(Br)c3)c2cc1OC [Example 191, N-[(1R)-1-(3-bromophenyl)ethyl]-6,7-dimethoxy-2-methylquinazolin-4-amine] | 6.76 | 6.42 |  |  |
| COc1cc2nc(C)nc(N[C@H](C)c3ccc(C(N)=O)cc3)c2cc1OC [Example 192, 4-{(1R)-1-[(6,7-dimethoxy-2-methylquinazolin-4-yl)amino]ethyl}benzamide] | 5.34 | 4.85 |  |  |
| COc1cc2nc(C)nc(N[C@H](C)c3cccc(-c4ccccc4)c3)c2cc1OC [Example 193, N-[(1R)-1-(biphenyl-3-yl)ethyl]-6,7-dimethoxy-2-methylquinazolin-4-amine] | 6.38 | 6.09 |  |  |
| COc1cc2nc(C)nc(N[C@H](C)c3cccc(C#N)c3)c2cc1OC [Example 194, 3-{(1R)-1-[(6,7-dimethoxy-2-methylquinazolin-4-yl)amino]ethyl}benzonitrile] | 6.31 | 5.61 |  |  |
| COc1cc2nc(C)nc(N[C@H](C)c3ccc(C)cc3)c2cc1OC [Example 195, 6,7-dimethoxy-2-methyl-N-[(1R)-1-(4-methylphenyl)ethyl]quinazolin-4-amine] | 6.52 | 6.13 |  |  |
| COc1cc2nc(C)nc(N[C@H](C)c3ccc(-c4ccccc4)cc3)c2cc1OC [Example 196, N-[(1R)-1-(biphenyl-4-yl)ethyl]-6,7-dimethoxy-2-methylquinazolin-4-amine] | 5.62 | 5.21 |  |  |
| COc1cc2nc(C)nc(N[C@H](C)c3ccc(C4CC4)cc3)c2cc1OC [Example 197, N-[(1R)-1-(4-cyclopropylphenyl)ethyl]-6,7-dimethoxy-2-methylquinazolin-4-amine] | 6.57 | 6.20 |  |  |
| COc1cc2nc(C)nc(N[C@H](C)c3cccc(S(C)(=O)=O)c3)c2cc1OC [Example 198, 6,7-dimethoxy-2-methyl-N-{(1R)-1-[3-(methylsulfonyl)phenyl]ethyl}quinazolin-4-amine] | 6.54 | 5.96 |  |  |
| COc1cc2nc(C)nc(N[C@H](C)c3cccc(C(N)=O)c3)c2cc1OC [Example 199, 3-{(1R)-1-[(6,7-dimethoxy-2-methylquinazolin-4-yl)amino]ethyl}benzamide] | 5.76 | 5.17 |  |  |
